The subject of test [1] is A-549. The experiment in a line: Cell proliferation inhibition, Cell Counting Kit-8, non-small cell lung cancer cell line. It is filed as cell-based. To be noted: A-549 cell line; 72 hours incubation; test concentration not given. On the technique in general: Tetrazolium assays rely on reduction of a dye to a coloured formazan, in cell work by metabolically active cells.
Test [2] addresses T1, RET (G810S/M918T) (Homo sapiens, UniProt P07949, G810S/M918T).
T1 construct: purchased Reaction Biology Corp
The experiment in a line: Kinase panel inhibition, radiolabeled [γ-33P] ATP (Reaction Biology Corp). In kind it is biochemical. To be noted: ATP 1 µM; for remaining activity at 10 µM: compound at 10 uM; for remaining activity at 30 µM: compound at 30uM.
Description: (§1) Using radiolabeled ATP ([γ-33P] ATP), the degree to which the substrate was replaced by a 33P-phosphorylated substrate was measured, and changes in kinase activity were determined from the measurement of the radiolabeled phosphorylated substrate.

The target of test [3] is T2, RET-CCDC6 (PTC1) (Homo sapiens, UniProt P07949).
T2 construct: purchased Reaction Biology Corp
Described as above. The conditions noted are these: ATP 1 µM; for remaining activity at 10 µM: compound at 10 uM; for remaining activity at 30 µM: compound at 30uM. It is filed as biochemical.
Description: as §1

The mark [4] stands for this setting: Data 1, read-out: % Enzyme Activity (relative to DMSO controls) RET (G810S/M918T) Data 1.
Setting [5] is: Data 2, read-out: % Enzyme Activity (relative to DMSO controls) RET (G810S/M918T) Data 2.
Where [6] appears, read: Data 1, read-out: % Enzyme Activity (relative to DMSO controls) RET-CCDC6 (PTC1) Data 1.
The mark [7] stands for this setting: Data 2, read-out: % Enzyme Activity (relative to DMSO controls) RET-CCDC6 (PTC1) Data 2.

Like-named read-outs stand apart in the source and are kept apart here.

T2 sequence (P07949 whole entry, looked up): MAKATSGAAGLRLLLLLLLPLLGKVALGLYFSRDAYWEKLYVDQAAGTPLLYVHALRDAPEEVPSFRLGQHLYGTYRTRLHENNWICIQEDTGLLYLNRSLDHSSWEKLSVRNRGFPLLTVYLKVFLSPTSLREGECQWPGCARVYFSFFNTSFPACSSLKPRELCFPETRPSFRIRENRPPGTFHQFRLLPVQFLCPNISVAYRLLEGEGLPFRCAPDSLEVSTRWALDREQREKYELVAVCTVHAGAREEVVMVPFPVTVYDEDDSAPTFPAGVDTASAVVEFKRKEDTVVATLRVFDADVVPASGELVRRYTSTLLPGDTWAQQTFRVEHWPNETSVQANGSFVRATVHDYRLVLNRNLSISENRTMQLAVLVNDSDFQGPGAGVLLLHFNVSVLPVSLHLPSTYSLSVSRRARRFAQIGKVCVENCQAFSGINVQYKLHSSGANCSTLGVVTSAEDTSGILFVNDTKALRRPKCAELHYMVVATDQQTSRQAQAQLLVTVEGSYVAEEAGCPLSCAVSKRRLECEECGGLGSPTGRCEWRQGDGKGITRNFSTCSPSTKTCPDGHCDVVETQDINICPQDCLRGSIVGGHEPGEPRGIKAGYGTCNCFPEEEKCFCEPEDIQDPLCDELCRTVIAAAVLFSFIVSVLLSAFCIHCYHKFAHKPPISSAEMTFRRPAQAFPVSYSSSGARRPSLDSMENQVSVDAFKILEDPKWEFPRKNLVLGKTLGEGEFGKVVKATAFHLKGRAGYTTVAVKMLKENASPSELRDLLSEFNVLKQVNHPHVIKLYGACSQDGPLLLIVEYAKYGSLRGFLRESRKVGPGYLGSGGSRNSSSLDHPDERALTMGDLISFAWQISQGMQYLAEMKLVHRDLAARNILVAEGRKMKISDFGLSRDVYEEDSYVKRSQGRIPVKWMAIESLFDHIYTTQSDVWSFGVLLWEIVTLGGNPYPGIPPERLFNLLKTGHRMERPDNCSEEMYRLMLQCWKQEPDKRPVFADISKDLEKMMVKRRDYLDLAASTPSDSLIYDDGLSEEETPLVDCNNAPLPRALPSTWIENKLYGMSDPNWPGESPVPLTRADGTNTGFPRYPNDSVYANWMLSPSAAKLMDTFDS
T1 sequence (P07949 29-1114 G810S/M918T): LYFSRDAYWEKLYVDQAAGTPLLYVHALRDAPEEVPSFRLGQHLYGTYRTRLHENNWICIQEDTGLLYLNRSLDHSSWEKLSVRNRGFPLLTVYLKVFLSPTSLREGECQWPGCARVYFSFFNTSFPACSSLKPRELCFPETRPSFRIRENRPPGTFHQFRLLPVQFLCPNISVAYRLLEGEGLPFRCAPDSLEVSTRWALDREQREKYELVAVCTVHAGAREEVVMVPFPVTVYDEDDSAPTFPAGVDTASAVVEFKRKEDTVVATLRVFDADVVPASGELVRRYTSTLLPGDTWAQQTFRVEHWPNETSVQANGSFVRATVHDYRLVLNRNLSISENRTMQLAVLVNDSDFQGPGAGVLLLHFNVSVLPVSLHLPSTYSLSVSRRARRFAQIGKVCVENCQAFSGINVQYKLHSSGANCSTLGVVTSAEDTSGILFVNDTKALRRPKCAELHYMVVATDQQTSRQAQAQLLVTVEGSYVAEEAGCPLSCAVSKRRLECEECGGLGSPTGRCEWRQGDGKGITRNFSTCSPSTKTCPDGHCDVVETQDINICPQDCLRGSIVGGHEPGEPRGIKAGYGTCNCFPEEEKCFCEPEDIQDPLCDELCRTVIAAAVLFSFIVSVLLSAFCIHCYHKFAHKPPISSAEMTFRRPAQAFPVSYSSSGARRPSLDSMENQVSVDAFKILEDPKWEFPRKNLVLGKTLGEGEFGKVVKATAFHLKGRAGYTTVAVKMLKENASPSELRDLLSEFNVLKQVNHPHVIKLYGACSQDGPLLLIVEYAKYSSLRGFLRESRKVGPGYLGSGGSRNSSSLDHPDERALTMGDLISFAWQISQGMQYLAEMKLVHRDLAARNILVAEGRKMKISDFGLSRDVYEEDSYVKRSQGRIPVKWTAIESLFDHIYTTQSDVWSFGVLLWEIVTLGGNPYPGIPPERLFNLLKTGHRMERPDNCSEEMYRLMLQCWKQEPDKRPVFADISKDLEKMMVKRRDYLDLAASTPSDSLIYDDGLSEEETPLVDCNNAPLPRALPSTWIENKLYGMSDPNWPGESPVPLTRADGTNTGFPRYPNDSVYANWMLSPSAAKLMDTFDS

Take `Nc1cc(-c2ccc(N3CCN(c4ccccn4)CC3)nc2)c2nccnc2c1` [Example 23, 8-(6-(4-(pyridin-2-yl)piperazin-1-yl)pyridin-3-yl)quinoxalin-6-amine]: the “Cell Proliferation (% of control)” value in test [1] is 78.36%. Moreover, the remaining activity at 10 µM in test [2] (setting [4]) amounted to 9.23%; in test [2] (setting [5]), 9.45%; in test [3] (setting [6]), 1.92%; in test [3] (setting [7]) it was 2.29%.
For `CC(C)CNc1cc(Br)c2nccnc2c1` [Intermediate Compound 22, 8-Bromo-N-isobutylquino xalin-6-amine], the remaining activity at 30 µM amounted to 49.4% in test [2] (setting [4]) and 48.9% in test [2] (setting [5]).
Turning to `CC(C)Nc1cc(-c2ccc(N3CC(Oc4cccc(F)c4)C3)nc2)c2nccnc2c1` [Example 5, 8-(6-(3-(3-fluorophenoxy)azetidin-1-yl)pyridin-3-yl)-N-isopropylquinoxalin-6-amine], in test [1], the “Cell Proliferation (% of control)” value is 36.07%. In addition, the remaining activity at 10 µM worked out at 5.96% in test [2] (setting [4]), 6.14% in test [2] (setting [5]), 1.34% in test [3] (setting [6]) and 0.72% in test [3] (setting [7]).
Take `CCCNc1cc(-c2ccc(N3CC[C@H](NC(=O)c4ccccc4F)C3)nc2)c2nccnc2c1` [Example 13, (S)-2-fluoro-N-(1-(5-(7-(propylamino)quinoxalin-5-yl)pyridin-2-yl)pyrrolidin-3-yl)benzamide]: in test [1], the “Cell Proliferation (% of control)” value amounted to 39.32%. In addition, the remaining activity at 10 µM is -0.06% in test [2] (setting [4]), -0.31% in test [2] (setting [5]), 0.91% in test [3] (setting [6]) and 1.28% in test [3] (setting [7]).
Consider `O=C(Nc1cc(-c2ccc(F)nc2)c2nccnc2c1)c1ccccn1` [Intermediate Compound 14, N-(8-(6-Fluoropyridin-3-yl)quinoxalin-6-yl)picolinamide], for which the remaining activity at 30 µM in test [2] (setting [4]) and in test [2] (setting [5]) was 92.5% in each case.
Turning to `CCCCNc1cc(-c2ccc(N3CC[C@H](NC(=O)c4ccccc4F)C3)nc2)c2nccnc2c1` [Example 15, (S)-N-(1-(5-(7-(butylamino)quinoxalin-5-yl)pyridin-2-yl)pyrrolidin-3-yl)-2-fluorobenzamide], the “Cell Proliferation (% of control)” value in test [1] is 51.55%. Moreover, the remaining activity at 10 µM was -0.06% in test [2] (setting [4]), -0.2% in test [2] (setting [5]), 1.08% in test [3] (setting [6]) and 1.1% in test [3] (setting [7]).
The corresponding values for `O=C(Nc1cc(-c2ccc(N3CC[C@H](NC(=O)c4ccccc4F)C3)nc2)c2nccnc2c1)c1ccccn1` [Example 18, (S)-N-(8-(6-(3-(2-fluorobenzamido)pyrrolidin-1-yl)pyridin-3-yl)quinoxalin-6-yl)picolinamide] are 35.32%, 24.7%, 25.5%, 1.9% and 2.31%.
`Nc1cc(-c2cnc(N3CC[C@H](NC(=O)c4ccccc4F)C3)nc2)c2nccnc2c1` [Example 30, (S)-N-(1-(5-(7-aminoquinoxalin-5-yl)pyrimidin-2-yl)pyrrolidin-3-yl)-2-fluorobenzamide]: the “Cell Proliferation (% of control)” value in test [1] is reported as 42.94%. The remaining activity at 10 µM was 0.97% in test [2] (setting [4]), 0.98% in test [2] (setting [5]), 1.19% in test [3] (setting [6]) and 1.2% in test [3] (setting [7]).
With `CCCCNc1cc(-c2ccc(F)nc2)c2nccnc2c1` [Intermediate Compound 9, N-butyl-8-(6-fluoropyridin-3-yl)quinoxalin-6-amine], the results for the remaining activity at 30 µM in test [2] (setting [4]) and in test [2] (setting [5]) were 24.8% and 25.3%, respectively.
Take `O=C(Nc1cc(-c2ccc(N3CC(Oc4cccc(F)c4)C3)nc2)c2nccnc2c1)c1ccccn1` [Example 9, N-(8-(6-(3-(3-fluorophenoxy)azetidin-1-yl)pyridin-3-yl)quinoxalin-6-yl)picolinamide]: in test [1], the “Cell Proliferation (% of control)” value came out at 18.67%. The remaining activity at 10 µM is 49.5% in test [2] (setting [4]), 50% in test [2] (setting [5]), 2.81% in test [3] (setting [6]) and 3.74% in test [3] (setting [7]).
Consider `CCCNc1cc(Br)c2nccnc2c1` [Intermediate Compound 19, 8-Bromo-N-propylquinoxalin-6-amine], for which the figures for the remaining activity at 30 µM in test [2] (setting [4]) and in test [2] (setting [5]) were 27.6% and 28.3%, respectively.
For the molecule `CCS(=O)(=O)N1CCN(c2ccc(-c3cc(N)cc4nccnc34)cn2)CC1` [Example 22, 8-(6-(4-(ethylsulfonyl)piperazin-1-yl)pyridin-3-yl)quinoxalin-6-amine], the “Cell Proliferation (% of control)” value in test [1] was determined as 68.42%. For the same molecule, the remaining activity at 10 µM was determined as 15.7% in test [2] (setting [4]), 15.1% in test [2] (setting [5]), 2.9% in test [3] (setting [6]) and 3.03% in test [3] (setting [7]).
Turning to `CC(C)Nc1cc(-c2ccc(N3CC[C@H](NC(=O)c4ccccc4F)C3)nc2)c2nccnc2c1` [Example 14, (S)-2-fluoro-N-(1-(5-(7-(isopropylamino)quinoxalin-5-yl)pyridin-2-yl)pyrrolidin-3-yl)benzamide], the “Cell Proliferation (% of control)” value in test [1] is 47.83%. Besides, the remaining activity at 10 µM came out at 5.08% in test [2] (setting [4]), 4.68% in test [2] (setting [5]), 1.04% in test [3] (setting [6]) and 0.72% in test [3] (setting [7]).
For `CCCCNc1cc(Br)c2nccnc2c1` [Intermediate Compound 21, 8-Bromo-N-butylquinoxalin-6-amine], the remaining activity at 30 µM in test [2] (setting [4]) came to 20.8%; in test [2] (setting [5]), 21.7%.
`O=C(Nc1cc(-c2ccc(N3CC[C@H](NC(=O)c4ccccc4F)C3)nc2)c2nccnc2c1)c1ccco1` [Example 17, (S)-N-(8-(6-(3-(2-fluorobenzamido)pyrrolidin-1-yl)pyridin-3-yl)quinoxalin-6-yl)furan-2-carboxamide]: the “Cell Proliferation (% of control)” value in test [1] is 48.96%. Moreover, the remaining activity at 10 µM is 11.9% in test [2] (setting [4]), 11.9% in test [2] (setting [5]), 1.15% in test [3] (setting [6]) and 1.33% in test [3] (setting [7]).
Take `CCCNc1cc(-c2ccc(F)nc2)c2nccnc2c1` [Intermediate Compound 7]: the remaining activity at 30 µM came to 24% in test [2] (setting [4]) and 22.3% in test [2] (setting [5]).
Consider `CCCCNc1cc(-c2ccc(N3CC(Oc4cccc(F)c4)C3)nc2)c2nccnc2c1` [Example 6, N-butyl-8-(6-(3-(3-fluorophenoxy)azetidin-1-yl)pyridin-3-yl)quinoxalin-6-amine], for which, in test [1], the “Cell Proliferation (% of control)” value turned out to be 68.59%. Also, the remaining activity at 10 µM in test [2] (setting [4]) was 2.18%; in test [2] (setting [5]), 2.37%; in test [3] (setting [6]), 1.05%; in test [3] (setting [7]) it was 1.32%.
Take `O=C(Nc1cc(Br)c2nccnc2c1)c1ccccn1` [Intermediate Compound 12, N-(8-Bromoquinoxalin-6-yl)picolinamide]: the remaining activity at 30 µM in test [2] (setting [4]) is 100%; in test [2] (setting [5]), 96.4%.
`CC(C)Nc1cc(Br)c2nccnc2c1` [Intermediate Compound 20, 8-Bromo-N-isopropylquin oxalin-6-amine]: the remaining activity at 30 µM in test [2] (setting [4]) stood at 69.1%; in test [2] (setting [5]), 73.1%; in test [3] (setting [6]), 7.86%; in test [3] (setting [7]), 7.51%.
For `Nc1cc(-c2ccc(F)nc2)c2nccnc2c1` [Intermediate Compound 4, 8-(6-fluoropyridin-3-yl)quinoxalin-6-amine], in that order: 53.5%, 54.1%, 20.9% and 19.4%.
`CC(C)CNc1cc(-c2ccc(F)nc2)c2nccnc2c1` [Intermediate Compound 10, 8-(6-Fluoropyridin-3-yl)-N-isobutylquinoxalin-6-amine]: the remaining activity at 30 µM in test [2] (setting [4]) was 43.1%; in test [2] (setting [5]), 40.1%.
In the case of `Nc1cc(-c2cnc(Cl)nc2)c2nccnc2c1` [Intermediate Compound 16, 8-(2-chloropyrimidin-5-yl)quinoxalin-6-amine], the remaining activity at 30 µM in test [2] (setting [4]) was determined as 40.8%; in test [2] (setting [5]) it was 39.1%; in test [3] (setting [6]) it was 13.2%; in test [3] (setting [7]) it was 13.3%.
The corresponding values for `CNc1cc(-c2ccc(F)nc2)c2nccnc2c1` [Intermediate Compound 5, 8-(6-fluoropyridin-3-yl)-N-methylquinoxalin-6-amine] are 13.3%, 14.4%, 5.67% and 3.67%.
The corresponding values for `CC(C)Nc1cc(-c2ccc(F)nc2)c2nccnc2c1` [Intermediate Compound 8, 8-(6-fluoropyridin-3-yl)-N-isopropylquin oxalin-6-amine] are 66.5%, 68.4%, 7.38% and 7.71%.

For the origin of these results see patent publication EP4796538A1, “NOVEL QUINOXALINE COMPOUNDS, MANUFACTURING METHOD THEREOF, AND USES THEREOF” (Gachon University of Industry-Academic Cooperation …, priority 2023, dated 2025).
